In patent US9545400B2, “Analgesic composition including opioid analgesic and P7C3” (CHONNAM NATIONAL UNIVERSITY HOSPITAL, priority 2014, dated 2017):

Assays:
[1] = system: Sprague-Dawley rats; test: Formalin-induced pain test (flinching) after intrathecal administration; type: in vivo, rat; conditions: for ED50 (dose which decreases the formalin response of the control by 50%), Phase 1 / ED50 (dose which decreases the formalin response of the control by 50%), Phase 2: drug alone, intrathecal 10 min before formalin injection, rat; for ED50 (dose which decreases the formalin response of the control by 50%), Phase 1: Phase 1 (0 to 9 min); for ED50 (dose which decreases the formalin response of the control by 50%), Phase 2: Phase 2 (10 to 60 min); for Ratio of ED50 in Phase 1 to ED50 in Phase 2: formalin experiment; for Ratio of ED50 in Phase 1 to ED50 in Phase 2 / Flinching reactions, dose-response (percentage of control) / Number of flinches over time at the highest dose: intrathecal; for Flinching reactions, dose-response (percentage of control): Phase 1 and Phase 2, FIGS. 2A and 2B; for Number of flinches over time at the highest dose: FIGS. 1A and 1B
Protocol: (§1) After permission for all the procedures in the experimental protocol was obtained by The Institutional Animal Care and Use Committee of Chonnam National University, experiments were performed. Adult male Sprague-Dawley rats (250 to 300 g) were used as the experimental subject, four rats per group were housed and kept in a well-controlled vivarium, maintained at 22° C. for 12 hours, with an alternating light/dark cycle and were given food and water ad libitum. Rats were under sevoflurance anesthesia in order to be implanted with an intrathecal catheter, and placed in a stereotaxic apparatus A polyethylene catheter lower end portion was intrathecally inserted so as to be positioned within the lumbar extension portion through an incision in the cisternal membrane. Then, the catheter upper end portion was secured at the skull. After the catheter implantation, rats were again housed in individual cages. After the intrathecal catheter implantation, rats showing movement disorder were excluded in the experiment, and killed by administering an overdose of sevoflurane. Rats showing normal responses were again housed in individual cages in the vivarium, and given a recovery time of 5 days.
A formalin experiment was used as a pain evoking experimental tool. 50 μL of a 5% formalin solution was injected subcutaneously into the subcutaneous tissue of a hind paw of the rat. […] The number of flinches was counted for 1 min periods at 1 and 5 min and at 5 min intervals from 10 to 60 min after the injection. […] Therefore, the phase from 0 to 9 minutes after the injection of formalin was defined as Phase 1, and the phase from 10 to 60 minutes was defined as Phase 2. After the behavior study, rats were administered an overdose of sevoflurane, and then killed.
The effect of the experimental drug for the formalin injection was tested for 5 days after the intrathecal catheter implantation. After acclimatization for 15 to 20 min in a restraint cylinder (10×10×30 cm), the rats were allocated to receive one of the experimental drugs, and tested only once. The same volume of the vehicle (saline, 0.1 N NaOH or DMSO) was administered to a control. The total number of rats used in the nociceptive behavioral study was 139 with 6 to 8 rats per group. The investigators were blind as to the administration amount and type of experimental drug used in each rat.
Saline, 10, 30, and 100 μg of P7C3 (Tocris Cookson Ltd., Bristol, UK), and 1, 3, 10, and 30 μg of morphine sulfate (Sigma-Aldrich, St. Louis, Mo., USA) were intrathecally administered 10 minutes before formalin injection, and analgesic effects (flinching number analysis) were investigated according to the aforementioned pain experiment. The drug was intrathecally administered by using a manually gear operated syringe pump. All the drugs were administered in an amount of 10 μl, and an additional 10 μl of standard saline was administered in order to wash out the catheter.
The dose (ED50), which decreases the formalin response of the control for P7C3 and morphine by 50%, was determined at Phase 1 and the Phase 2, respectively.
And then, ED50 of the mixed drug was obtained. The experiment was performed individually in Phase 1 and Phase 2.
Data obtained in Examples 1 and 2 were expressed as means±SEM. The time response data are presented as the number of flinches. The dose-response data are presented as a percentage of the control. Percentage of the control=(total number of flinches in drug administration group in Phase 1[2]/number of flinches of control in Phase 1[2])×100

[2] = system: Sprague-Dawley rats; test: Evaluation of response of intrathecal administration of P7C3 (motor function and pinna/corneal reflexes); type: in vivo, rat; conditions: highest dose (100 μg) intrathecal, 5 rats
Protocol: as §1, with “After the intrathecal catheter implantation, rats showing movement disorder were excluded in the experiment, and killed by administering an overdose of sevoflurane. Rats showing normal responses were again housed in individual cages in the vivarium, and given a recovery time of 5 days.” left out
In order to detect undesirable behaviors induced by P7C3, the highest dose (100 μg) was intrathecally administered to 5 rats of each individual group. Motor function was assessed by the placing-stepping reflex and the righting reflex. […] The latter was evaluated by placing the rat horizontally with the rat's back on the table. […] The central nervous system was evaluated through pinna and corneal reflexes. […]

Row | Structure (SMILES) | ED50 (dose which decreases the formalin response of the control by 50%), Phase 1 [1] | ED50 (dose which decreases the formalin response of the control by 50%), Phase 2 [1] | Ratio of ED50 in Phase 1 to ED50 in Phase 2 [1] | Flinching reactions, dose-response (percentage of control) [1] | Number of flinches over time at the highest dose [1] | Normality of behavior: placing-stepping, righting, pinna and corneal reflexes [2]
1 | CN1CC[C@]23c4c5ccc(O)c4O[C@H]2[C@@H](O)C=C[C@H]3[C@H]1C5 [Morphine, (5α,6α)-7,8-didehydro-4,5-epoxy-17-methylmorphinan-3,6-diol, reference compound] | 8.8 µg | 3.9 µg | two times larger | suppressed flinching reactions dose-dependently | exhibited potential analgesic effects throughout the entire observation period | –
2 | OC(CNc1ccccc1)Cn1c2ccc(Br)cc2c2cc(Br)ccc21 (centres unmarked) [P7C3, 1-(3,6-dibromo-9H-carbazol-9-yl)-3-(phenylamino)propan-2-ol] | 31.8 µg | 31 µg | similar | suppressed flinching reactions dose-dependently | exhibited potential analgesic effects throughout the entire observation period | all normal (present)
